{"source": "patent US6372777B1", "about": "“Cyclic AMP-specific phosphodiesterase inhibitors” (ICOS Corporation, priority 1999, dated 2002)"}
{"biological_target": "T1, human recombinant PDE4 (Homo sapiens, UniProt Q07343)", "T1 construct": "made in house; host or cells: Saccharomyces cerevisiae BJ2-54 (strain YI23 harboring HDUN2.32, if PDE4B)", "T1 sequence (Q07343 1-564 isoform Q07343-2)": "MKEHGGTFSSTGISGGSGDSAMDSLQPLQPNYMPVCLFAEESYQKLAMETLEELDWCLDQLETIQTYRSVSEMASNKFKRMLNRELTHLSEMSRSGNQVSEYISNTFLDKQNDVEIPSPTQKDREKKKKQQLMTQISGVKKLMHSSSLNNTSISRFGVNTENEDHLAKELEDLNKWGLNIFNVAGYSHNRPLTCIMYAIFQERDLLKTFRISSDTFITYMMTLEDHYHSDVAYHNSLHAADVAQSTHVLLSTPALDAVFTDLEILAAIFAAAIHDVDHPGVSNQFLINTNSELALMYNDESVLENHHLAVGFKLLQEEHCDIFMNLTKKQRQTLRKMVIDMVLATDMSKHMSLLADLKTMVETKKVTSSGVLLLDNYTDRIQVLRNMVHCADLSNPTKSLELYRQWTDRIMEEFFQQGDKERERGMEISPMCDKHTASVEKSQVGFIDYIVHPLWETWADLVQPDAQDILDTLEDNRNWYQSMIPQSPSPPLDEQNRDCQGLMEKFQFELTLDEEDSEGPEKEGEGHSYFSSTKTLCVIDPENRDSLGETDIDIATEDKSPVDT", "assay": "Inhibition of human recombinant PDE4 (IC50)", "assay_type": "biochemical", "conditions": "not given", "units": {"IC50": "µM"}}
{"compound": "CCOC(=O)c1cccc(-n2c(C)cc(C(=O)OCC)c2-c2ccccc2)c1", "note": "[Example 46, 1-(3-Ethoxycarbonylphenyl)-5-methyl-2-phenyl-1H-pyrrole-3-carboxylic acid ethyl ester]", "IC50": 8.7}
{"compound": "CCOC(=O)c1cc(-c2ccccc2)n(-c2ccc(N)cc2)c1C", "note": "[Example 38, 1-(4-Aminophenyl)-2-methyl-5-phenyl-1H-pyrrole-3-carboxylic acid ethyl ester]", "IC50": 1.3}
{"compound": "CCOC(=O)c1cc(C)n(Cc2cccc([N+](=O)[O-])c2)c1-c1ccccc1", "note": "[Example 31, 5-Methyl-1-(3-nitrobenzyl)-2-phenyl-1H-pyrrole-3-carboxylic acid ethyl ester]", "IC50": 5.13}
{"compound": "CCOC(=O)c1cc(-c2ccccc2)n(-c2cccc(C(F)(F)F)c2)c1C", "note": "[Example 28, 2-Methyl-5-phenyl-1-(3-trifluoro-methylphenyl)-1H-pyrrole-3-carboxylic acid ethyl ester]", "IC50": 2.28}
{"compound": "CCOC(=O)c1cc(C)n(-c2ccc([N+](=O)[O-])cc2)c1-c1ccccc1", "note": "[Example 36, 5-Methyl-1-(4-nitrophenyl)-2-phenyl-1H-pyrrole-3-carboxylic acid ethyl ester]", "IC50": 110}
{"compound": "CCOC(=O)c1cc(-c2ccccc2)n(-c2cccnc2)c1C", "note": "[Example 19, 2-Methyl-5-phenyl-1-pyridin-3-yl-1H-pyrrole-3-carboxylic acid ethyl ester]", "IC50": 1.28}
{"compound": "CCOC(=O)c1cc(-c2ccccc2)n(-c2cccc(Br)c2)c1C", "note": "[Example 26, 1-(3-Bromophenyl)-2-methyl-5-phenyl-1H-pyrrole-3-carboxylic acid ethyl ester]", "IC50": 3.07}
{"compound": "CCOC(=O)c1cc(-c2ccccc2)n(-c2ccccc2[N+](=O)[O-])c1C", "note": "[Example 34, 2-Methyl-1-(2-nitrophenyl)-5-phenyl-1H-pyrrole-3-carboxylic acid ethyl ester]", "IC50": 1.65}
{"compound": "CCOC(=O)c1cc(-c2ccccc2)n(-c2cccc(C(C)=O)c2)c1C", "note": "[Example 8, 1-(3-Acetylphenyl)-2-methyl-5-phenyl-1H-pyrrole-3-carboxylic acid ethyl ester]", "IC50": 0.59}
{"compound": "CCOC(=O)c1cc(C)n(-c2cccnc2)c1-c1ccccc1", "note": "[Example 32, 5-Methyl-2-phenyl-1-pyridin-3-yl-1H-pyrrole-3-carboxylic acid ethyl ester]", "IC50": 13.4}
{"compound": "CCOC(=O)c1cc(C)n(-c2ccc(N)cc2)c1-c1ccccc1", "note": "[Example 37, 1-(4-Aminophenyl)-5-methyl-2-phenyl-1H-pyrrole-3-carboxylic acid ethyl ester]", "IC50": 16}
{"compound": "CCOC(=O)c1cc(C)n(-c2cccc(C(F)(F)F)c2)c1-c1ccccc1", "note": "[Example 29, 5-Methyl-2-phenyl-1-(3-trifluoro-methylphenyl)-1H-pyrrole-3-carboxylic acid ethyl ester]", "IC50": 6.78}
{"compound": "CCOC(=O)c1cc(-c2ccccc2)n(-c2cccc(N(C)C)c2)c1C", "note": "[Example 1, 1-(3-Dimethylaminophenyl)-2-methyl-5-phenyl-1H-pyrrole-3-carboxylic acid ethyl ester]", "IC50": 8.22}
{"compound": "CCOC(=O)c1cc(C)n(-c2cccc(C(N)=O)c2)c1-c1ccccc1", "note": "[Example 12, 1-(3-Carbamoylphenyl)-5-methyl-2-phenyl-1H-pyrrole-3-carboxylic acid ethyl ester]", "IC50": 0.22}
{"compound": "CCOC(=O)c1cc(-c2ccccc2)n(-c2cccc(C)c2)c1C", "note": "[Example 5, 2-Methyl-5-phenyl-l-m-tolyl-1H-pyrrole-3-carboxylic acid ethyl ester]", "IC50": 6.1}
{"compound": "CCOC(=O)c1cc(C)n(-c2cccc(Cl)c2Cl)c1-c1ccccc1", "note": "[Example 42, 1-(2,3-Dichlorophenyl)-5-methyl-2-phenyl-1H-pyrrole-3-carboxylic acid ethyl ester]", "IC50": 1.49}
{"compound": "CCOC(=O)c1cc(-c2ccccc2)n(-c2cccc(S(C)(=O)=O)c2)c1C", "note": "[Example 10, 1-(3-Methanesulfonylphenyl)-2-methyl-5-phenyl-1H-pyrrole-3-carboxylic acid ethyl ester]", "IC50": 4.38}
{"compound": "Cc1cc(C(=O)O)c(-c2ccccc2)n1-c1cccc([N+](=O)[O-])c1", "note": "[Example 43, 5-Methyl-1-(3-nitrophenyl)-2-phenyl-1H-pyrrole-3-carboxylic acid]", "IC50": 15.6}
{"compound": "CCOC(=O)c1cc(-c2ccccc2)n(-c2cccc(N)c2)c1C", "note": "[Example 41, 1-(3-Aminophenyl)-2-methyl-5-phenyl-1H-pyrrole-3-carboxylic acid ethyl ester]", "IC50": 1.42}
{"compound": "CCOC(=O)c1cc(C)n(-c2cccc([N+](=O)[O-])c2)c1-c1ccccc1", "note": "[Example 39, 1-(3-Nitrophenyl)-5-methyl-2-phenyl-1H-pyrrole-3-carboxylic acid ethyl ester]", "IC50": 0.2}
{"compound": "CCOC(=O)c1cc(C)n(-c2cccc(C)c2)c1-c1ccccc1", "note": "[Example 4, 5-Methyl-2-phenyl-1-m-tolyl-1H-pyrrole-3-carboxylic acid ethyl ester]", "IC50": 2.9}
{"compound": "CCOC(=O)c1cc(C)n(-c2cccc(S(C)(=O)=O)c2)c1-c1ccccc1", "note": "[Example 9, 1-(3-Methanesulfonylphenyl)-5-methyl-2-phenyl-1H-pyrrole-3-carboxylic acid ethyl ester]", "IC50": 4.58}
{"compound": "CCOC(=O)c1cc(C)n(-c2ccc([N+](=O)[O-])cn2)c1-c1ccccc1", "note": "[Example 23, 5-Methyl-1-(5-nitropyridin-2-yl)-2-phenyl-1H-pyrrole-3-carboxylic acid ethyl ester]", "IC50": 133}
{"compound": "CCOC(=O)c1cc(-c2ccccc2)n(-c2ccc([N+](=O)[O-])cc2)c1C", "note": "[Example 33, 2-Methyl-1-(4-nitrophenyl) -5-phenyl-1H-pyrrole-3-carboxylic acid ethyl ester]", "IC50": 1.4}
{"compound": "CCOC(=O)c1cc(-c2ccccc2)n(Cc2cccc([N+](=O)[O-])c2)c1C", "note": "[Example 30, 2-Methyl-1-(3-nitrobenzyl)-5-phenyl-1H-pyrrole-3-carboxylic acid ethyl ester]", "IC50": 13.4}
{"compound": "CCOC(=O)c1cc(-c2ccccc2)n(-c2cccc(C(N)=O)c2)c1C", "note": "[Example 11, 1-(3-Carbamoylphenyl)-2-methyl-5-phenyl-1H-pyrrole-3-carboxylic acid ethyl ester]", "IC50": 5.45}
{"compound": "CCOC(=O)c1cc(C)n(-c2cccc(N(C)C)c2)c1-c1ccccc1", "note": "[Example 13, 1-(3-Dimethylaminophenyl)-5-methyl-2-phenyl-1H-pyrrole-3-carboxylic acid ethyl ester]", "IC50": 0.15}
{"compound": "CCOC(=O)c1cc(C)n(-c2cc(C(F)(F)F)cc(C(F)(F)F)c2)c1-c1ccccc1", "note": "[Example 45, 1-(3,5-Bis-trifluoromethylphenyl)-5-methyl-2-phenyl-1H-pyrrole-3-carboxylic acid ethyl ester]", "IC50": 194}
{"compound": "CCOC(=O)c1cc(C)n(-c2cccc(C(=O)O)c2)c1-c1ccccc1", "note": "[Example 24, 1-(3-Carboxyphenyl)-5-methyl-2-phenyl-1H-pyrrole-3-carboxylic acid ethyl ester]", "IC50": 16.5}
{"compound": "CCOC(=O)c1cc(-c2ccccc2)n(C2CCCCC2)c1C", "note": "[Example 20, 1-Cyclohexyl-2-methyl-5-phenyl-1H-pyrrole-3-carboxylic acid ethyl ester]", "IC50": 0.99}
{"compound": "CCOC(=O)c1cc(C)n(-c2cccc(C(C)=O)c2)c1-c1ccccc1", "note": "[Example 7, 1-(3-Acetylphenyl)-5-methyl-2-phenyl-1H-pyrrole-3-carboxylic acid ethyl ester]", "IC50": 6.83}
{"compound": "CCOC(=O)c1cc(-c2ccccc2)n(-c2cccc(F)c2)c1C", "note": "[Example 18, 1-(3-Fluorophenyl)-2-methyl-5-phenyl-1H-pyrrole-3-carboxylic acid ethyl ester]", "IC50": 0.62}
{"compound": "CCOC(=O)c1cc(C)n(-c2cccc(F)c2)c1-c1ccccc1", "note": "[Example 17, 1-(3-Fluorophenyl)-5-methyl-2-phenyl-1H-pyrrole-3-carboxylic acid ethyl ester]", "IC50": 13.2}
{"compound": "CCOC(=O)c1cc(C)n(-c2cccc(Cl)c2)c1-c1ccccc1", "note": "[Example 2, 1-(3-Chlorophenyl)-5-methyl-2-phenyl-1H-pyrrole-3-carboxylic acid ethyl ester]", "IC50": 5.45}
{"compound": "CCOC(=O)c1cc(-c2ccccc2)n(-c2ccc([N+](=O)[O-])cn2)c1C", "note": "[Example 35, 2-Methyl-1-(5-nitropyridin-2-yl)-5-phenyl-1H-pyrrole-3-carboxylic acid ethyl ester]", "IC50": 5.74}
{"compound": "CCOC(=O)c1cc(C)n(-c2cccc(Br)c2)c1-c1ccccc1", "note": "[Example 6, 1-(3-Bromophenyl)-5-methyl-2-phenyl-1H-pyrrole-3-carboxylic acid ethyl ester]", "IC50": 8.55}
{"system": "human peripheral blood lymphocytes", "assay": "Lipopolysaccharide-stimulated TNFα release from human peripheral blood lymphocytes", "assay_type": "cell-based", "conditions": "Homo sapiens, Lymphocyte; LPS-stimulated TNFα release; read-out: PBL/TNFα EC50", "protocol": "The compounds of structural formulae (I) and (II) also were tested for an ability to reduce TNFα secretion in human peripheral blood lymphocytes. The ability to reduce TNFα secretion is related to the EC50 values (i.e., the effective concentration of the compound capable of inhibiting 50% of the total TNFα). To assess the ability of a compound to reduce TNFα secretion in human peripheral blood lymphocytes (PBL), the following tests were performed. […] Heparinized blood (approximately 30 mL) drawn from human volunteers was mixed 1:1 with Dulbecco's modified phosphate-buffered saline. This mixture was mixed 1:1 with HISTOPAQUE and centrifuged at 1,500 rpm at room temperature without braking in the swinging bucket of a Beckman model TJ6 centrifuge. Erythrocytes were centrifuged to the bottom of the tubes, and serum remained at the surface of the tubes. A layer containing lymphocytes sedimented between the serum and HISTOPAQUE® layers, and was removed by aspiration to a fresh tube. The cells were quantified and adjusted to 3×10^6 cells/mL and a 100 μL aliquot is placed into the wells of a 96 well plate. Test compounds and RPMI media (Gibco/BRL Life Sciences) are added to each of the wells 15 minutes prior to addition of bacterial LPS ([…]). The mixture was allowed to incubate for 20 hours at 37° C. in a humidified chamber. The cells then were separated by centrifuging at 800 rpm for 5 minutes at room temperature. An aliquot of 80 µL of supernatant was transferred to a new plate or determination of TNFα concentration. TNFα protein in the cell supernatant fluids was measured using a commercially available enzyme-linked immunosorbent assay (ELISA) (CYTOSCREEN® Immunoassay Kit from Biosource International). The cell-based assay provided the following results for various compounds of the present invention. The EC50 values (i.e., effective concentration of the compound capable of inhibiting 50% of the total TNFα ) illustrate the ability of the present compounds to inhibit LPS-stimulated TNFα release from human PBL.", "units": {"EC50": "µM"}}
{"compound": "CCOC(=O)c1cc(C)n(-c2cccc(Cl)c2Cl)c1-c1ccccc1", "note": "[Example 42, 1-(2,3-Dichlorophenyl)-5-methyl-2-phenyl-1H-pyrrole-3-carboxylic acid ethyl ester]", "EC50": 100}
{"compound": "CCOC(=O)c1cc(C)n(-c2ccccc2)c1-c1ccccc1", "note": "[Example 21, 5-Methyl-1,2-diphenyl-1H-pyrrole-3-carboxylic acid ethyl ester]", "EC50": 10}
